Test results published in US20250177426A1, “METHODS AND COMPOSITIONS FOR TREATING DEMENTIA” (Cognitive Synergy Corporation, priority 2023, published 2025).
Values joined by “and” are separate entries in the source; they are usually repeats but may differ in a detail not shown here. Equal entries are not always repeated.

How the values were obtained:
Aβ protein = target: T1, Aβ protein (Homo sapiens, UniProt P05067); experiment: Aβ fibrillization, percent of control; type: biochemical; conditions: for Aβ fibrillization as compared to control: FIG. 7; for Aβ fibrillization as compared to the control: FIG. 12; for fibrillization of Aβ protein: FIG. 9, control = 100
T1 construct: The bar graph 700 includes a control sample with 10 μM Aβ protein
Method: Referring to FIG. 7, FIG. 7 is a bar graph 700 showing a percentage of Aβ fibrillization as compared to a control for neoliquiritin, sebiricose A5, (Z)SA glycoside, and (E)SA glycoside. The bar graph 700 includes a control sample with 10 μM Aβ protein. The amount of Aβ fibrillization in the control sample is normalized to 100%. All other samples in the bar graph 700 include 10 μM Aβ protein and another compound at a concentration of 100 μM.
Referring to FIG. 8, FIG. 8 is a bar graph 800 showing a percentage of Aβ fibrillization as compared to a control for neoliquiritin samples of various concentrations. The amount of Aβ fibrillization in the control sample is normalized to 100%. All other samples in the bar graph 800 include 10 μM Aβ protein and a variable concentration of neoliquiritin.
Referring to FIG. 9, FIG. 9 is a bar graph 900 showing a percentage of Aβ fibrillization as compared to a control for neoliquiritin and liquiritigenin samples of various concentrations. Like the other bar graphs, the control sample is on the left side of the bar graph 900. The control sample comprises 10 μM Aβ protein and the percent fibrillization of Aβ protein in the control sample is normalized to 100. All other samples, which contain either neoliquiritin or liquiritigenin, also include a concentration of 10 μM Aβ protein.
Referring to FIG. 12, FIG. 12 is a bar graph 1200 showing a percentage of Aβ fibrillization as compared to a control for sinapic acid, trans-sinapic acid, and sinapic acid O-glucoside at various concentrations. On the left side of the bar graph 1200, a control sample comprising 10 μM Aβ protein has a fibrillization measurement normalized to 100. All other samples include the same concentration of 10 μM Aβ protein as a control sample.

SH-SY5Y cells = experiment: Survival of SH-SY5Y cells in solutions of Aβ; type: cell-based; conditions: FIG. 11, Aβ-only control 69%
Method: Referring to FIG. 10, FIG. 10 is a bar graph 1000 showing a percentage of survival of SH-SY5Y cells in solutions of Aβ and various concentrations of neoliquiritin. […] All the samples in the bar graph 1000 comprised the same concentration of 10 μM Aβ protein as the control sample as well as a variable concentration of neoliquiritin.
Referring to FIG. 11, FIG. 11 is a bar graph 1100 showing a percentage of survival of SH-SY5Y cells in solutions of neoliquiritin, isoliquiritigenin, isoliquiritin, sinapic acid O-glucoside, trans-sinapic acid, and liquiritigenin at various concentrations. […] The other samples in the bar graph 1100 all contain the same concentration of 10 μM Aβ protein as a control sample.

Aβ fibrils = target: T2, Aβ fibrils (Homo sapiens, UniProt P05067); experiment: Relative fluorescence of prefibrillated Aβ after timed treatment; type: biochemical; conditions: FIG. 14, 50 μM compound
T2 construct: The bar graph 700 includes a control sample with 10 μM Aβ protein
Description: Control samples containing only Aβ protein as starting material are unshaded. Other samples containing Aβ protein and an additional compound have shading according to the legend on the bottom of the bar graphs 1400.

[1] = 10 μM Aβ protein and 100 μM compound
[2] = 10 μM Aβ protein and 100 nM compound
[3] = 10 μM Aβ protein and 1 μM compound
[4] = 10 μM Aβ protein and 10 μM compound

T1 sequence (P05067 672-711 limits assumed): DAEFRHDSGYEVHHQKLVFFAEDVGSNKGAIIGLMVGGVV
T2 sequence (P05067 672-711 limits assumed): as above

COc1cc(/C=C/C(=O)O)cc(OC)c1O[C@@H]1O[C@H](O)[C@@H](O)[C@H](O)[C@H]1O [(E)SA glycoside]
Aβ fibrillization as compared to control (Aβ protein; [1]): 51%

COc1cc(/C=C/C(=O)O)cc(OC)c1O [SA, sinapic acid, reference compound]
Aβ fibrillization as compared to the control (Aβ protein; [2]): 105%
Aβ fibrillization as compared to the control (Aβ protein; [3]): 101%
Aβ fibrillization as compared to the control (Aβ protein; [4]): 114%
Aβ fibrillization as compared to the control (Aβ protein; [1]): 85%

COc1cc(/C=C/C(=O)O)cc(OC)c1O [T-SA, trans-sinapic acid, reference compound]
Aβ fibrillization as compared to the control (Aβ protein; [2]): 98%
Aβ fibrillization as compared to the control (Aβ protein; [3]): 95%
Aβ fibrillization as compared to the control (Aβ protein; [4]): 89%
Aβ fibrillization as compared to the control (Aβ protein; [1]): 79%
survival for the SH-SY5Y cells (SH-SY5Y cells; [3]): 76%
survival for the SH-SY5Y cells (SH-SY5Y cells; [4]): 77%
Relative fluorescence for Aβ fibrils (Aβ fibrils; 46.5 hours, Aβ only approximately 900000): approximately 850000 RFU
Relative fluorescence for Aβ fibrils (Aβ fibrils; 48 hours, Aβ only approximately 1070000): approximately 940000 RFU
Relative fluorescence for Aβ fibrils (Aβ fibrils; 60 hours, Aβ only approximately 1010000): approximately 940000 RFU
Relative fluorescence for Aβ fibrils (Aβ fibrils; 72 hours, Aβ only approximately 980000): approximately 770000 RFU

O=C(/C=C/c1ccc(O)cc1)c1ccc(O)cc1O [isoliquiritigenin]
survival for the SH-SY5Y cells (SH-SY5Y cells; [3]): 84%
survival for the SH-SY5Y cells (SH-SY5Y cells; [4]): 81%

O=C(/C=C/c1ccc(O[C@@H]2O[C@H](CO)[C@@H](O)[C@H](O)[C@H]2O)cc1)c1ccc(O)cc1O [isoliquiritin]
survival for the SH-SY5Y cells (SH-SY5Y cells; [3]): 72%
survival for the SH-SY5Y cells (SH-SY5Y cells; [4]): 74%

O=C1C[C@@H](c2ccc(O)cc2)Oc2cc(O)ccc21 [liquiritigenin, reference compound]
fibrillization of Aβ protein (Aβ protein; 100 nM compound and 10 μM Aβ protein): 94%
fibrillization of Aβ protein (Aβ protein; 10 μM compound and 10 μM Aβ protein): 92% and 90%
fibrillization of Aβ protein (Aβ protein; 50 μM compound and 10 μM Aβ protein): 97%
fibrillization of Aβ protein (Aβ protein; 100 μM compound and 10 μM Aβ protein): 83%
survival for the SH-SY5Y cells (SH-SY5Y cells; [3]): 67%
survival for the SH-SY5Y cells (SH-SY5Y cells; [4]): 67%

Sebiricose A5 [reference compound]
Aβ fibrillization as compared to control (Aβ protein; [1]): 86%
